Assays:
Adenosine receptor A3 = target: T1, Adenosine receptor A3 (Homo sapiens, UniProt P0DMS8)
T1 sequence (P0DMS8 whole entry): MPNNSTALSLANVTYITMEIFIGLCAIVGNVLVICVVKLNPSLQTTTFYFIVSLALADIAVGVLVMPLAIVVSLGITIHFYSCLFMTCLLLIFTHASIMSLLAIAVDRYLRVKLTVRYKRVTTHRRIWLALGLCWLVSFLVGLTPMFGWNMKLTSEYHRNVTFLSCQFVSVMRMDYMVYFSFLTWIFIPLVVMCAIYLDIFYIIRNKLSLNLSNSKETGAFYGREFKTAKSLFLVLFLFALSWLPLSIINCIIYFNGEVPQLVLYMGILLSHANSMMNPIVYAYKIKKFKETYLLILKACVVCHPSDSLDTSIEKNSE

[1] = target: T2, Muscarinic acetylcholine receptor M1 (Homo sapiens, UniProt P11229); type: functional, cell-based
T2 sequence (P11229 whole entry): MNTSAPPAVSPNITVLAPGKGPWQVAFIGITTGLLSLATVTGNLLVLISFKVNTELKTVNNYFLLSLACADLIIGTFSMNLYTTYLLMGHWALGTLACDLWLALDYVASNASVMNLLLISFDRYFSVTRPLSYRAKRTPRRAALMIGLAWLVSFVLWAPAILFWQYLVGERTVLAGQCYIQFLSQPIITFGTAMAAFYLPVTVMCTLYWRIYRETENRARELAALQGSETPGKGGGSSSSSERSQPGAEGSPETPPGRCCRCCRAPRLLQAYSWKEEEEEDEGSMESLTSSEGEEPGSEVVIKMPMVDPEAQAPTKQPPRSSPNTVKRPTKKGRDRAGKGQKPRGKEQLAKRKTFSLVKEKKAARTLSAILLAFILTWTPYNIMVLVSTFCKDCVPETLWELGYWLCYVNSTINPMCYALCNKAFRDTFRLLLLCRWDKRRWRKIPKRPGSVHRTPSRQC

[2] = target: T2, Muscarinic acetylcholine receptor M1; type: functional, cell-based; remark: listed apart in the source
[3] = target: T3, Neuropeptide Y receptor type 1 (Homo sapiens, UniProt P25929)
T3 sequence (P25929 whole entry): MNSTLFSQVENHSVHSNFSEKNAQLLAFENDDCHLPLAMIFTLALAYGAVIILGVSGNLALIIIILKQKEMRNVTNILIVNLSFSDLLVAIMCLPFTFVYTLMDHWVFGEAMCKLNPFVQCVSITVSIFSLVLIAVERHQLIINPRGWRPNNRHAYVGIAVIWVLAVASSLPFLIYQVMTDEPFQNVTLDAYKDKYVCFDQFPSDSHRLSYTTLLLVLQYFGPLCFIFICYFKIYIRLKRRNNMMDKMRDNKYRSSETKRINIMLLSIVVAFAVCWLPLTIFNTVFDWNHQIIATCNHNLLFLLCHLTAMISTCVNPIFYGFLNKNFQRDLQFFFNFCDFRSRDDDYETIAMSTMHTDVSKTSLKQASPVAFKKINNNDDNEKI

[4] = target: Kappa-type opioid receptor (Homo sapiens, UniProt P41145)
[5] = target: Vascular endothelial growth factor receptor 2 (Homo sapiens, UniProt P35968); type: functional
D(1A) dopamine receptor = D(1A) dopamine receptor (Homo sapiens, UniProt P21728); type: functional, cell-based
[6] = target: T4, 5-hydroxytryptamine receptor 1A (Homo sapiens, UniProt P08908); type: functional, cell-based
T4 sequence (P08908 whole entry): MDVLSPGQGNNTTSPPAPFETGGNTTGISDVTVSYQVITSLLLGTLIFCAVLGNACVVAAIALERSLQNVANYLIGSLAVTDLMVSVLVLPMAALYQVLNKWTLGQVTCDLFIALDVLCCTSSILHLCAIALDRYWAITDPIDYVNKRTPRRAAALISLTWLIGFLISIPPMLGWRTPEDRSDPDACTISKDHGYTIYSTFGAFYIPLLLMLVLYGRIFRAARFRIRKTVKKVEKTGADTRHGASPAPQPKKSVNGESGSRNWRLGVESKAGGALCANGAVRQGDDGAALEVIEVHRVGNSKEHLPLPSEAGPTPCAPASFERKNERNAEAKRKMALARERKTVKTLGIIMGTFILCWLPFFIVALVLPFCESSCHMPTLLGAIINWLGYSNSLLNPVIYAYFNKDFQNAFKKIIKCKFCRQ

[7] = target: 5-hydroxytryptamine receptor 2B (Homo sapiens, UniProt P41595); type: functional, cell-based
[8] = target: T5, Amine oxidase [flavin-containing] A (Homo sapiens, UniProt P21397); type: functional
T5 sequence (P21397 whole entry): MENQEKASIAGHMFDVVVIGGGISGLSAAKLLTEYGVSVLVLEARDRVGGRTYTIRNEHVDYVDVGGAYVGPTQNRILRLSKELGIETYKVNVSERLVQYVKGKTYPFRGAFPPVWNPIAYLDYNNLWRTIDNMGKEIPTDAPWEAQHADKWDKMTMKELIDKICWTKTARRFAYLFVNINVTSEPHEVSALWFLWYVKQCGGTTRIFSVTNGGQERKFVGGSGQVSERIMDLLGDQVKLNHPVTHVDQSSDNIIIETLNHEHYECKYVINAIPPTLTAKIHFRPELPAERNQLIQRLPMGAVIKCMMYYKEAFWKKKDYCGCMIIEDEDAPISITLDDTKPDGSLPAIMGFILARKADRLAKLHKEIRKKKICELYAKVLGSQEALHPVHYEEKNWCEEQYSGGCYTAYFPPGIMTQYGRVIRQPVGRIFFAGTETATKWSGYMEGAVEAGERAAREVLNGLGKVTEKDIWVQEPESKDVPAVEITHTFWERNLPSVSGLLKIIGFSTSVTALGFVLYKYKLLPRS

D(3) dopamine receptor = D(3) dopamine receptor (Homo sapiens, UniProt P35462)
[9] = target: Gamma-aminobutyric acid receptor subunit alpha-1/alpha-2/beta-2/gamma-2 (Homo sapiens, UniProt P14867+P18507+P47869+P47870); type: protein-complex assay
Adenosine receptor A2a = Adenosine receptor A2a (Homo sapiens, UniProt P29274)
Note: assay procedure not described here.

Chain of Vascular endothelial growth factor receptor 2 (P35968 whole entry): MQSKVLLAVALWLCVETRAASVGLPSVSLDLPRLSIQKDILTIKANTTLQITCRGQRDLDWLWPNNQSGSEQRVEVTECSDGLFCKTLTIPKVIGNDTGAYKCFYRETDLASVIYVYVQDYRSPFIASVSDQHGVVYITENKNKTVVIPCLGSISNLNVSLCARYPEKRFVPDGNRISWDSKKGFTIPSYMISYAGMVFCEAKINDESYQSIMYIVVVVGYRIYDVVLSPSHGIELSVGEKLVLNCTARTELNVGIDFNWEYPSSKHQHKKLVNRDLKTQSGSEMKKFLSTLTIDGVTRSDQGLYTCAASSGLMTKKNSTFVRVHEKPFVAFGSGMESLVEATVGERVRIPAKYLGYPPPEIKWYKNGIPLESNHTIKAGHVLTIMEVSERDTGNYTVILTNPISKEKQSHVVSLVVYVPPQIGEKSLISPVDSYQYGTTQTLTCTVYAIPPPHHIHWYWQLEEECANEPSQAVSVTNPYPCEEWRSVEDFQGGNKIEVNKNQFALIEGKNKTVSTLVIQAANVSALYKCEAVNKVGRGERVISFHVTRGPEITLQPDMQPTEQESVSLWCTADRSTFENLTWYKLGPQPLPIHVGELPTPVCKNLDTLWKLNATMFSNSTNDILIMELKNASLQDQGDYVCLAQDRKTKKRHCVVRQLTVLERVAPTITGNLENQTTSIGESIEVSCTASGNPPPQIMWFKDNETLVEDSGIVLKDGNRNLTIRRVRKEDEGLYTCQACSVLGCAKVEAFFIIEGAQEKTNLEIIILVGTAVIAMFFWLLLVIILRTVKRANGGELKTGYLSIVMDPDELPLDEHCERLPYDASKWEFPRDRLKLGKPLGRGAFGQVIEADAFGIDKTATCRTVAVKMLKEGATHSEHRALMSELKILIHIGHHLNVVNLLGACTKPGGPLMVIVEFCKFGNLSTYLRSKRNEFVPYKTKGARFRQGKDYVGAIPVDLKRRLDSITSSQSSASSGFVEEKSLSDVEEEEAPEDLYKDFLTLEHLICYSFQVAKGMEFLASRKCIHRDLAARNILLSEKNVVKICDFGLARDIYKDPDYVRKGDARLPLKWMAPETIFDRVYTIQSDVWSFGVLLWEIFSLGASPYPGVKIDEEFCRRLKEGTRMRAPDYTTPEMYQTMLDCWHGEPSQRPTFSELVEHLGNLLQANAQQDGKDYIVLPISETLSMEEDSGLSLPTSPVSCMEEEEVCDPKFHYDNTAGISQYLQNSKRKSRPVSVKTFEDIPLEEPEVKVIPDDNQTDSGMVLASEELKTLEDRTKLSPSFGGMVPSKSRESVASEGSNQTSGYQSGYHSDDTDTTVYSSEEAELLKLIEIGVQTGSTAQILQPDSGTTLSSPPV
Chain of Kappa-type opioid receptor (P41145 whole entry): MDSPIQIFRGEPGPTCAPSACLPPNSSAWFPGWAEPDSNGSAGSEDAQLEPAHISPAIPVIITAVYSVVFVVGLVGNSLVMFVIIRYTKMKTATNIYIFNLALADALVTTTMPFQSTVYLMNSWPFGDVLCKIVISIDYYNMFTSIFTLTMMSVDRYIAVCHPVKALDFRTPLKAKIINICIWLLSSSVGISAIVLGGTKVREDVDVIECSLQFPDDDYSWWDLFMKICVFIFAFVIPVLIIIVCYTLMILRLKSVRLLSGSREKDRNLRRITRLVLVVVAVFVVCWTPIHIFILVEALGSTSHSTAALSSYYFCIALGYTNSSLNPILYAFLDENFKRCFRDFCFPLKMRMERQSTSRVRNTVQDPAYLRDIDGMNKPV
Chain of D(1A) dopamine receptor (P21728 whole entry): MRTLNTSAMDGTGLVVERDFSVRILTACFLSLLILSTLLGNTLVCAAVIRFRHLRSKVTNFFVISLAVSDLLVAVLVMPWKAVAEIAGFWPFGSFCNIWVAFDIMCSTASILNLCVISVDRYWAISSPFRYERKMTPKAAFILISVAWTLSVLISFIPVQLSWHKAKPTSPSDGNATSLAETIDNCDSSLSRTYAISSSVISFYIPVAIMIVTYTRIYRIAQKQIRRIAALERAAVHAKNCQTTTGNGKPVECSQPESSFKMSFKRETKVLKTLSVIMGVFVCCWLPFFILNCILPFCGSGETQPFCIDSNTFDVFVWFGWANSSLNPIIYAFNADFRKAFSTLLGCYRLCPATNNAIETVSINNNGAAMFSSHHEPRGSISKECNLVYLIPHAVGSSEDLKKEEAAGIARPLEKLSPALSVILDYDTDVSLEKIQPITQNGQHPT
Chain of D(3) dopamine receptor (P35462 whole entry): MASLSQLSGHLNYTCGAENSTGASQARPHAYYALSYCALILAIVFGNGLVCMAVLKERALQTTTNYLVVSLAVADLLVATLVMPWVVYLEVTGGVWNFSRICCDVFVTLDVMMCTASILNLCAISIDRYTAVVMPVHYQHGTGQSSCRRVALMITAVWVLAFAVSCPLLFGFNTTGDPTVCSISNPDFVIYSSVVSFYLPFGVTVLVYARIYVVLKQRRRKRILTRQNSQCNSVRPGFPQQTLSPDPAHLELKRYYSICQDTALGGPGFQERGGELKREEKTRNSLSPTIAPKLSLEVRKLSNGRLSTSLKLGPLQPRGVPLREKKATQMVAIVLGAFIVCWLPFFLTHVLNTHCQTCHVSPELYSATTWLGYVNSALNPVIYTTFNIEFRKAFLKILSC
Chain of 5-hydroxytryptamine receptor 2B (P41595 whole entry): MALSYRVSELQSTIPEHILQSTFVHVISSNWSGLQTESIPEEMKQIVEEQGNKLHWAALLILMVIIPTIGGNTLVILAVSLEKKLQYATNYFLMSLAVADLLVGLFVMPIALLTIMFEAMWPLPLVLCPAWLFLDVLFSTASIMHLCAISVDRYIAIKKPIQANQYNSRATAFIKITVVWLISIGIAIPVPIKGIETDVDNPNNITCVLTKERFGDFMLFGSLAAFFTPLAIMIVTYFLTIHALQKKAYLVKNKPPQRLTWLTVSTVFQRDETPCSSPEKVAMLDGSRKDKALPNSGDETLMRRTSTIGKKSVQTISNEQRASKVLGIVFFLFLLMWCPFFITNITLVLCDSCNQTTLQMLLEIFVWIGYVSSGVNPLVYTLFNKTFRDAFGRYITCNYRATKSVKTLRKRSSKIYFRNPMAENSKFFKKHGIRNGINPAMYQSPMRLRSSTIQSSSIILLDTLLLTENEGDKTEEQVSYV
Chain of Gamma-aminobutyric acid receptor subunit alpha-1/alpha-2/beta-2/gamma-2 (P14867 whole entry): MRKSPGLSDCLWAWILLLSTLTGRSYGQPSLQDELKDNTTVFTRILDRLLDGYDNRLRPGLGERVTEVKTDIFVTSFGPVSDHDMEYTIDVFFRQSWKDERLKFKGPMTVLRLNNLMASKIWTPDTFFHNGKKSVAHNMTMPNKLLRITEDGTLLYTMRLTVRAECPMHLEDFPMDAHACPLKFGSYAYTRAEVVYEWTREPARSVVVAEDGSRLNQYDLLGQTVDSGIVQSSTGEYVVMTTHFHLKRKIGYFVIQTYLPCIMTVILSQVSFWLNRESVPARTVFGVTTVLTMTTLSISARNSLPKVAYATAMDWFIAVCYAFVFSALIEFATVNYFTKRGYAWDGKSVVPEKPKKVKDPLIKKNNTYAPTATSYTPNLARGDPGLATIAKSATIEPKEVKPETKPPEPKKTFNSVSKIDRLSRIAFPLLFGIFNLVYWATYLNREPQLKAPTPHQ
Chain of Gamma-aminobutyric acid receptor subunit alpha-1/alpha-2/beta-2/gamma-2 (P47870 whole entry): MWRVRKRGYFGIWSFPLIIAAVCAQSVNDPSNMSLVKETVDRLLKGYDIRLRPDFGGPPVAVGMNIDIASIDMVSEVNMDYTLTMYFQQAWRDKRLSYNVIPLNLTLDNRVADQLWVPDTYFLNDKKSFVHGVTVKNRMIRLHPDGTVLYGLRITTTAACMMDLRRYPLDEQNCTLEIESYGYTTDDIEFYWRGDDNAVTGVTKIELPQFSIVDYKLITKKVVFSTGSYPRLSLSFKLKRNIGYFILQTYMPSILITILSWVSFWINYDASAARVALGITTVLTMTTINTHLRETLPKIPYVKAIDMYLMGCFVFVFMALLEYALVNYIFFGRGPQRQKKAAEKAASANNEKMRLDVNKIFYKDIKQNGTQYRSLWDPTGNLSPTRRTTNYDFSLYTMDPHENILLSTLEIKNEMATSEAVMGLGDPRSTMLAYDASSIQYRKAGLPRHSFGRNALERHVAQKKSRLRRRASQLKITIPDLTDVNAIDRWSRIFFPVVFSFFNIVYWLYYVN
Chain of Gamma-aminobutyric acid receptor subunit alpha-1/alpha-2/beta-2/gamma-2 (P18507 whole entry): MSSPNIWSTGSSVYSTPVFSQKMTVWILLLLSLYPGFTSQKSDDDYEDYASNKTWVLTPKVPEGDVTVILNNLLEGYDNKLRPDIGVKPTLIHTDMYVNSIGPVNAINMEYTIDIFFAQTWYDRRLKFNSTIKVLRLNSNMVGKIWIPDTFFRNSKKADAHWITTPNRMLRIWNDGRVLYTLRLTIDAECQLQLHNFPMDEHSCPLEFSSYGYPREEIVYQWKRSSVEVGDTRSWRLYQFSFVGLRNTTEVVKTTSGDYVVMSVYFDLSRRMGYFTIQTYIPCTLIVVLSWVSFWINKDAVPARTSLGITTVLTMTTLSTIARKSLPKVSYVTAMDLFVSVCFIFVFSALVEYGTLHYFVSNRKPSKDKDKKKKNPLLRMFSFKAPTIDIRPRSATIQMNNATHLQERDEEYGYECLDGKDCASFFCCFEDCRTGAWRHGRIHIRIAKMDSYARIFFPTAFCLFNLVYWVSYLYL
Chain of Gamma-aminobutyric acid receptor subunit alpha-1/alpha-2/beta-2/gamma-2 (P47869 whole entry): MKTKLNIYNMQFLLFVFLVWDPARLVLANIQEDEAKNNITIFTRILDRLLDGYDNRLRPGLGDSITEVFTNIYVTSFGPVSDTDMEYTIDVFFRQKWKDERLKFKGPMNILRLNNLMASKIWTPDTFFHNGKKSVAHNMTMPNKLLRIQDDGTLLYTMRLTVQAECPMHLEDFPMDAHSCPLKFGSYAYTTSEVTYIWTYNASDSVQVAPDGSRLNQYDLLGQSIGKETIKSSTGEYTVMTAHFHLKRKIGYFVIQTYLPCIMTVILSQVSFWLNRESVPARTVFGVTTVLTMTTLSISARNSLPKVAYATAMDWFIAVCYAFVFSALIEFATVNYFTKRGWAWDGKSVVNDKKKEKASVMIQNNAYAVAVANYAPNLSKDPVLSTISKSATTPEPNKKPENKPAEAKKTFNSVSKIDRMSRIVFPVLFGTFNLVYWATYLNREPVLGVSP

Structure (SMILES) | AC50 [1] [µM] | AC50 [2] [µM] | AC50 [5] [µM] | further results
C[C@]1(COc2ccc(N3CCC(Oc4ccc(OC(F)(F)F)cc4)CC3)cc2)Cn2cc([N+](=O)[O-])nc2O1 | > 30 | > 30 | – | AC50 (Adenosine receptor A3): > 30 µM; AC50 [3]: > 30 µM; AC50 [4]: > 10 µM
CC(C1=C(CCN(C)C)Cc2ccccc21)c1ccccn1 (stereo not drawn) | > 30 | 7.57 | > 30 | –
CC(=O)OC(C)OC(=O)C(C)c1ccc(-c2ccccc2)c(F)c1 (stereo not drawn) | > 30 | > 30 | > 30 | –
C[C@H](N)C(=O)O [ALANINE] | > 30 | > 30 | > 30 | –
O=C1c2c(O)cccc2Cc2cccc(O)c21 [ANTHRALIN] | > 30 | > 30 | 6.14 | –
CNC(=O)C[C@@H](N)C(=O)N[C@@H](C(=O)N[C@@H]1C(=O)N2[C@@H]1SC(C)(C)[C@@H]2C(=O)O)c1ccc(O)cc1 [ASPOXICILLIN] | > 30 | > 30 | – | –
COC(=O)C1=C(C)NC(C)=C(C(=O)O[C@H]2CCN(Cc3ccccc3)C2)[C@H]1c1cccc([N+](=O)[O-])c1 [BARNIDIPINE] | > 30 | 4.07 | > 30 | –
C[C@@H](O)[C@H]1C(=O)N2C(C(=O)[O-])=C(SC3Cn4cnc[n+]4C3)[C@H](C)[C@H]12 (stereo partly drawn) [BIAPENEM] | > 30 | > 30 | – | –
CCCCOc1ccc(CC(=O)NO)cc1 [BUFEXAMAC] | > 30 | > 30 | > 30 | –
Cc1nnc(SCC2=C(C(=O)O)N3C(=O)[C@@H](NC(=O)Cn4cc(Cl)c(=O)c(Cl)c4)[C@H]3SC2)s1 [CEFAZEDONE] | > 30 | > 30 | 10.1 | –
CO/N=C(\C(=O)N[C@@H]1C(=O)N2C(C(=O)[O-])=C(C[n+]3cccc4c3CCC4)CS[C@H]12)c1csc(N)n1 [CEFPIROME] | > 30 | > 30 | – | AC50 (D(1A) dopamine receptor): > 30 µM; AC50 [6]: > 30 µM; AC50 [7]: > 30 µM; AC50 [4]: > 30 µM; AC50 [8]: > 30 µM; AC50 (D(3) dopamine receptor): > 30 µM
Nc1ncnc(Nc2ccc(Cl)cc2)n1 [CHLORAZANIL] | > 30 | > 30 | 15 | –
O=C(O)CC(O)(CC(=O)O)C(=O)O [CITRIC ACID] | – | – | > 30 | AC50 [9]: > 30 µM
CCC[C@@H]1C[C@@H](C(=O)N[C@@H]([C@H]2O[C@H](SC)[C@H](OP(=O)(O)O)[C@@H](O)[C@H]2O)[C@H](C)Cl)N(C)C1 [CLINDAMYCIN PHOSPHATE] | > 30 | > 30 | > 30 | –
C[C@@H]1C[C@H]2[C@@H]3C[C@H](F)C4=CC(=O)C=C[C@]4(C)[C@@]3(Cl)[C@@H](O)C[C@]2(C)[C@H]1C(=O)COC(=O)C(C)(C)C [CLOCORTOLONE PIVALATE] | > 30 | > 30 | – | –
O=P(O)(O)C(Cl)(Cl)P(=O)(O)O [CLODRONIC ACID] | > 30 | > 30 | – | –

Structure (SMILES) | AC50 [1] [µM] | AC50 [2] [µM] | AC50 [5] [µM] | further results
Nc1ccncc1 [DALFAMPRIDINE] | 27.9 | > 3 | – | –
O=C(CCCN1CC=C(n2c(=O)[nH]c3ccccc32)CC1)c1ccc(F)cc1 [DROPERIDOL] | – | – | > 30 | –
CCn1cc(C(=O)O)c(=O)c2cc(F)c(N3CCNCC3)nc21 [ENOXACIN] | – | – | > 30 | AC50 (Adenosine receptor A2a): > 30 µM; AC50 (Adenosine receptor A3): > 30 µM; AC50 (D(1A) dopamine receptor): > 10 µM; AC50 [6]: > 10 µM; AC50 [7]: > 10 µM; AC50 [3]: > 30 µM; AC50 [4]: > 10 µM; AC50 [8]: > 10 µM; AC50 (D(3) dopamine receptor): > 10 µM
CCOC(=O)c1ccc(OC(=O)CCCCCNC(=N)N)cc1 [GABEXATE] | > 30 | > 30 | > 30 | –
CCCCC/C=C\C/C=C\C/C=C\CCCCC(=O)O [GAMOLENIC ACID] | > 30 | > 30 | > 30 | –
NC(=O)NCCC[C@H](N)C(=O)O [L-CITRULLINE] | > 30 | > 30 | > 30 | –
CC(=O)O[C@H]1C[C@H](O[C@H]2[C@@H](O)C[C@H](O[C@H]3[C@@H](O)C[C@H](O[C@H]4CC[C@@]5(C)[C@H](CC[C@@H]6[C@@H]5C[C@@H](O)[C@]5(C)[C@@H](C7=CC(=O)OC7)CC[C@]65O)C4)O[C@@H]3C)O[C@@H]2C)O[C@H](C)[C@H]1O[C@@H]1O[C@H](CO)[C@@H](O)[C@H](O)[C@H]1O [LANATOSIDE C] | > 30 | > 30 | > 30 | –
Nc1nc(N)nc(Nc2ccc([As]3SCC(CO)S3)cc2)n1 (stereo not drawn) [MELARSOPROL] | > 30 | 22.5 | – | –
CO[C@H]1[C@@H](O)C[C@H](O[C@H]2[C@@H](O)C[C@H](O[C@H]3[C@@H](O)C[C@H](O[C@H]4CC[C@@]5(C)[C@H](CC[C@@H]6[C@@H]5C[C@@H](O)[C@]5(C)[C@@H](C7=CC(=O)OC7)CC[C@]65O)C4)O[C@@H]3C)O[C@@H]2C)O[C@@H]1C [METILDIGOXIN] | > 30 | > 30 | > 30 | –
CC1(C)S[C@@H]2[C@H](NC(=O)[C@H](NC(=O)N3CCN(S(C)(=O)=O)C3=O)c3ccccc3)C(=O)N2[C@H]1C(=O)O [MEZLOCILLIN] | > 30 | > 30 | – | –
c1ccc2c(CC3=NCCN3)cccc2c1 [NAPHAZOLINE] | > 30 | > 30 | > 30 | –
O=C(NC(Cc1cc(=O)[nH]c2ccccc12)C(=O)O)c1ccc(Cl)cc1 (stereo not drawn) [REBAMIPIDE] | > 30 | > 30 | – | –
CCCCCCCCCCCCCCCCCC(=O)NCCCC[C@H](NC(=O)CC[C@@H](NC(=O)[C@H](C)NC(=O)[C@@H](C)O[C@H]1[C@H](O)[C@@H](CO)OC(O)[C@@H]1NC(C)=O)C(N)=O)C(=O)O (stereo partly drawn) [ROMURTIDE] | > 30 | 6.71 | > 30 | –
CCOC(=O)[C@H](CCc1ccccc1)N[C@H]1CS[C@H](c2cccs2)CN(CC(=O)O)C1=O [TEMOCAPRIL] | > 30 | > 30 | – | –
C[C@@H]1C[C@H]2[C@@H]3CCC4=CC(=O)C=C[C@]4(C)C3=CC[C@]2(C)[C@H]1C(=O)CN1CCN(c2cc(N3CCCC3)nc(N3CCCC3)n2)CC1 [TIRILAZAD] | – | – | > 30 | –
